According to ChEMBL document CHEMBL4043177 (Bioorg Med Chem, 2017):

Legend:
Homo sapiens [1] = species on record: Homo sapiens; assay: Selectivity index, ratio of IC50 for human OX2R expressed in CHO cells to IC50 for human OX1R expressed in CHO cells; format: cell-based
Orexin receptor type 2 = biological target: T1, Orexin receptor type 2 (Homo sapiens, UniProt O43614); assay: Antagonist activity at human OX2R expressed in CHO cells assessed as reduction in [Ala6,12]orexin-A-induced intracellular Ca2+ mobilization incubated for 30 mins by Fluo-4AM dye based fluorescence assay; format: functional, cell-based
T1 sequence (O43614 whole entry): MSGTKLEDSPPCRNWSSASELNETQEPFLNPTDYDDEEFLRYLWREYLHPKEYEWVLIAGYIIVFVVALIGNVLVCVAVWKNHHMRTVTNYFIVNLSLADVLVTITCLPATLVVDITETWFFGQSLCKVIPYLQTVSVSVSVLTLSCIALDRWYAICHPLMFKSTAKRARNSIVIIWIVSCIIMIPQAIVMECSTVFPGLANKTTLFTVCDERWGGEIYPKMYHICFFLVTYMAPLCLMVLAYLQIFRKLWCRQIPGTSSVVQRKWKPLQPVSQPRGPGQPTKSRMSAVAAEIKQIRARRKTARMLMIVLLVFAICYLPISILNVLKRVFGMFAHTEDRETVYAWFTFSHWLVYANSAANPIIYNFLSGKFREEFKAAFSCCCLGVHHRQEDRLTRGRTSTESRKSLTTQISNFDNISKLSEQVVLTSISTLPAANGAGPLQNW

[2] = biological target: T2, Orexin/Hypocretin receptor type 1 (Homo sapiens, UniProt O43613); assay: Antagonist activity at human OX1R expressed in CHO cells assessed as reduction in [Ala6,12]orexin-A-induced intracellular Ca2+ mobilization incubated for 30 mins by Fluo-4AM dye based fluorescence assay; format: functional, cell-based
T2 sequence (O43613 whole entry): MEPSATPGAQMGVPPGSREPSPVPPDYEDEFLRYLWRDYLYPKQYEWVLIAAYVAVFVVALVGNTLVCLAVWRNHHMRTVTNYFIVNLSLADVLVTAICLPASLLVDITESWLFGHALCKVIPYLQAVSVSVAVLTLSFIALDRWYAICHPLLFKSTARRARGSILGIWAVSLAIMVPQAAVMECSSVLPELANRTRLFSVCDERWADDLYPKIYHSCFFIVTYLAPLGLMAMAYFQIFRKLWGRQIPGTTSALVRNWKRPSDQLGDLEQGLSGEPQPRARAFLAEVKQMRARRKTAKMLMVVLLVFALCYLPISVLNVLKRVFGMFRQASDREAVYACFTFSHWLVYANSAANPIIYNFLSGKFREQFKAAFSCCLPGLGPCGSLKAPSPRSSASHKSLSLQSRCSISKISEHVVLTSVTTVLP

Homo sapiens [3] = species on record: Homo sapiens; assay: Selectivity index, ratio of IC50 for OX2R expressed in CHO cells to IC50 for human OX1R expressed in CHO cells; format: cell-based

SMILES	Ratio IC50 (Homo sapiens [1])	IC50 (Orexin receptor type 2) [nM]	IC50 [2] [nM]	Ratio IC50 (Homo sapiens [3])
Cc1ccc(-n2nccn2)c(C(=O)N(C)CCn2cc(-c3ccc(F)cn3)cn2)c1	0.92	51.7	56.1	–
CCN(C(=O)c1cc(C)ccc1-c1ncccn1)[C@@H](C)Cc1noc(-c2ccc(F)cn2)n1	13	43.2	3.24	–
Cc1ccc(-n2nccn2)c(C(=O)N(C)[C@@H](C)Cn2ccc(-c3ccc(F)cn3)n2)c1	3	5.68	1.9	–
CCN(C(=O)c1cc(F)ccc1-n1nccn1)[C@@H](C)Cn1nnc(-c2ccc(F)cn2)n1	50	471	9.45	–
CCN(C(=O)c1cc(C)ccc1-n1nccn1)[C@@H](C)Cn1nnc(-c2ccc(F)cc2)n1	3.1	2.57	0.82	–
Cc1ccc(-n2nccn2)c(C(=O)NCCn2cc(-c3ccc(F)cn3)cn2)c1	–	–	908	–
Cc1ccc(-n2nccn2)c(C(=O)N[C@@H](C)Cn2cc(-c3ccc(F)cn3)cn2)c1	3.4	840	245	–
CCN(CCn1ccc(-c2ccc(F)cn2)n1)C(=O)c1cc(C)ccc1-n1nccn1	0.87	2.81	3.22	–
Cc1ccc(-n2nccn2)c(C(=O)N(C)[C@H](Cn2ccc(-c3ccc(F)cn3)n2)C(C)C)c1	16	952	61.5	–
CCN(C(=O)c1cc(C)ccc1-c1ncccn1)[C@@H](C)Cn1nnc(-c2ccc(F)cn2)n1	12	129	10.6	–
CCN(C(=O)c1cc(C)ccc1-n1nccn1)[C@@H](C)Cn1cc(-c2ccc(F)cn2)nn1	12	22.8	1.93	–
CCN(C(=O)c1cc(C)ccc1-n1nccn1)[C@@H](C)Cc1noc(-c2ccc(F)cn2)n1	9	11.3	1.26	–
Cc1ccc(-n2nccn2)c(C(=O)N[C@@H](C)Cn2ccc(-c3ccc(F)cn3)n2)c1	5.8	58.4	10.1	–
CCN(C(=O)c1nc(C)ccc1-c1ncccn1)[C@@H](C)Cc1noc(-c2ccc(F)cc2)n1	71	254	3.58	–
CCN(C(=O)c1cc(F)ccc1-n1nccn1)[C@@H](C)Cn1nnc(-c2ccc(F)cc2)n1	45	139	3.06	–
CC[C@@H](Cn1ccc(-c2ccc(F)cn2)n1)N(C)C(=O)c1cc(C)ccc1-n1nccn1	6.6	29	4.39	–
Cc1ccc(-n2nccn2)c(C(=O)N(C)CCn2ccc(-c3ccc(F)cn3)n2)c1	2.1	11.9	–	–
CCN(C(=O)c1nc(C)ccc1-n1nccn1)[C@@H](C)Cn1nnc(-c2ccc(F)cc2)n1	65	119	1.84	–

SMILES	Ratio IC50 (Homo sapiens [1])	IC50 (Orexin receptor type 2) [nM]	IC50 [2] [nM]	Ratio IC50 (Homo sapiens [3])
CCN(C(=O)c1cc(F)ccc1-n1nccn1)[C@@H](C)Cc1noc(-c2ccc(F)cn2)n1	60	887	14.7	–
CCN(C(=O)c1cc(C)ccc1-n1nccn1)[C@@H](C)Cn1ccc(-c2ccc(F)cn2)n1	1	1.61	1.62	–
CCN(C(=O)c1cc(C)ccc1-c1ncccn1)[C@@H](C)Cn1nnc(-c2ccc(F)cc2)n1	20	36	1.81	–
Cc1ccc(-n2nccn2)c(C(=O)N(C)[C@@H](C)Cn2cc(-c3ccc(F)cn3)cn2)c1	4.8	21.2	4.39	–
CCN(C(=O)c1cc(C)ccc1-c1ncccn1)[C@@H](C)Cc1noc(-c2ccc(F)cc2)n1	6.3	8.85	–	–
Cc1ccc(-n2nccn2)c(C(=O)NCCn2ccc(-c3ccc(F)cn3)n2)c1	1.7	198	119	–
CCN(C(=O)c1cc(F)ccc1-c1ncccn1)[C@@H](C)Cc1noc(-c2ccc(F)cc2)n1	51	80.1	1.58	–
CCN(C(=O)c1cc(C)ccc1-n1nccn1)[C@H](C)Cn1ccc(-c2ccc(F)cn2)n1	2.9	250	86.6	–
CCN(C(=O)c1nc(C)ccc1-n1nccn1)[C@@H](C)Cc1noc(-c2ccc(F)cc2)n1	22	40.5	1.82	–
CCN(C(=O)c1cc(F)ccc1-n1nccn1)[C@@H](C)Cc1noc(-c2ccc(F)cc2)n1	19	23.6	1.26	–
CCN(CCn1cc(-c2ccc(F)cn2)cn1)C(=O)c1cc(C)ccc1-n1nccn1	1.6	14.2	9.06	–
CCN(C(=O)c1cc(C)ccc1-n1nccn1)[C@@H](C)Cn1cc(-c2ccc(F)cn2)cn1	7.7	5.87	0.767	–
CCN(C(=O)c1cc(C)ccc1-n1nccn1)[C@@H](C)Cc1noc(-c2ccc(F)cc2)n1	2.6	2.73	1.07	–
CCN(C(=O)c1cc(C)ccc1-n1nccn1)[C@@H](C)Cn1nnc(-c2ccc(F)cn2)n1	16	17.9	1.1	–
CCN(C(=O)c1ccccc1-n1nccn1)[C@@H](C)Cc1noc(-c2ccc(F)cc2)n1	9.3	11.6	1.25	–
CCN(C(=O)c1ccccc1-n1nccn1)[C@@H](C)Cn1nnc(-c2ccc(F)cc2)n1	25	61	2.45	–
Cc1nc2ccc(NC(=O)Nc3ccnc4cccnc34)cc2o1	–	–	–	50
